Key:
Raf-1 (c-Raf) = biological target: T1, Raf-1 (c-Raf) (Homo sapiens, UniProt P04049); assay: Raf-1 kinase cascade assay; format: biochemical
T1 construct: Sf9 insect cell lysate containing full length 6his-tagged recombinant human c-Raf; 6his; host or cells: c-Raf: Sf9 insect cell lysate; MEK1 and MAPK: E. coli
Method: (Specific Activity: ∼200U/ml). Human Non-active Mek-1-GST and human GST-MAP kinase (recombinant proteins produced in E. coli ). • Stock Solutions c-Raf Assay: • 1. Assay Dilution Buffer (ADB): 20mM MOPS, pH 7.2, 25mM β-glycerol phosphate, 5mM EGTA, 1mM sodium orthovanadate, 1mM dithiothreitol. • 2. Magnesium/ATP Cocktail: 500µM cold ATP and 75 mM magnesium chloride in ADB. • 4. Active Kinase: Human Active c-Raf: Use at 0.4U per assay point. • 5. Non-active GST-MEK1: Use at 0.1µg per assay point. • 6. Non-active GST-p42 MAP Kinase: Use at 1.0 µg per assay point. • Stock Solutions ELISA: • 1. TBST - Tris (50 mM, pH 7.5), NaCl ( 150 mM), Tween-20 (0.05 %) • 2. Superblock (Pierce) • 3. Anti-GST Ab (Pharmacia) • 4. Anti-Phospho MAPK (Sigma) • 5. Anti-Mouse Ab / Europium conjugate (Wallac) • Assay Procedure: • First Stage: c-Raf Dependent Activation of GST-MEK and GST-MAPK • 1. Add […] of ADB per assay (i.e. per well of a 96 well plate) • 2. Add 10 ml of 0.5 mM cold ATP and 75 mM magnesium chloride in ADB. • 3. Add 2 ml of c-Raf (0.4U/assay), in conjunction with 1.6ml non-active MEK1 ([…]). • 4. Add 4 ml of non-active GST-p42 MAP Kinase ([…]). • 5. Incubate for 60 minutes at 30°C in a shaking incubator. • 6. Transfer this mixture to an anti-GST Ab coated 96 well plate (Nunc Immunosorb plates coated o/n with a-GST, then blocked with Pierce Superblock). • 7. Incubate for 60 minutes at 30°C in a shaking incubator • 8. Wash 3X with TBST, add Anti-Phospho MAPK (Sigma) (1:3000) • 9. Incubate for 60 minutes at 30°C in a shaking incubator • 10. Wash 3X with TBST, add Anti-Mouse Ab / Europium conjugate (Wallac) (1:500) • 11. Incubate for 60 minutes at 30°C in a shaking incubator • 12. Wash 3X with TBST, Read plates in Wallac Victor model Plate Reader. • 13. Collect data analyze in Excel for single point and IC50 determinations.
Typically Raf-1 assay is run at compound concentrations from 10 µM to 30 nM in half log dilutions. (% inhibition is determined for each compound concentration).

c-Met = biological target: T2, c-Met (Homo sapiens, UniProt P08581); assay: DELFIA assay for c-Met receptor kinase inhibitors; format: biochemical
T2 construct: The cytoplasmic domain of c-Met was generated by reverse transcriptase-polymerase chain reaction; His tag (from pFastBac-HTc vector; purified on Ni-NTA/Talon); made in house; host or cells: Sf9 insect cells (baculovirus)
T2 sequence (P08581 956-1390 limits assumed): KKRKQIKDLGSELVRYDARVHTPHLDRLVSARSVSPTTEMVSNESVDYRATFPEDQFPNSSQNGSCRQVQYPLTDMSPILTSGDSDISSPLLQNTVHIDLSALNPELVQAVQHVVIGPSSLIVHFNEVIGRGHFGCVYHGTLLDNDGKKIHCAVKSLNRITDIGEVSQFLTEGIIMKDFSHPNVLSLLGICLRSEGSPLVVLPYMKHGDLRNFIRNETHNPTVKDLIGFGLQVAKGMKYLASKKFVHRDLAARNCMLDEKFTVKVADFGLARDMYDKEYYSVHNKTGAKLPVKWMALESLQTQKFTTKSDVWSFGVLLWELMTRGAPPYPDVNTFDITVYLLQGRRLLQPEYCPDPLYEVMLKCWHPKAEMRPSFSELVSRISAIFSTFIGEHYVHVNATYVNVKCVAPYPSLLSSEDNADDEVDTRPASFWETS
Method: The c-Met kinase assay was performed as a DELFIA (dissociation enchanced lanthanide fluorometric immunoassay), an ELISA-like protocol based upon time-resolved fluorometry as described previously [Braunwalder, A. F., Yarwood, D.R., Sills, M.A., and Lipson, K.E., Anal. Biochem. 238, 159-164 (1996)]. The protocol was adopted for the screening of inhibitors of the kinase activity of recombinant c-Met. [Loganzo, F., and. Hardy, C., American Biotechnology Laboratory 16(13), 26-28 (1998)]. The cytoplasmic domain of c-Met was generated by reverse transcriptase-polymerase chain reaction using RNA isolated from human mammary epithelial cells as template, cloned into the pFastBac-HTc vector (Life Technologies) and protein expressed in Sf9 insect cells by baculovirus infection. Protein was purified by imidazole elution from Ni-NTA resin (Invitrogen, Carlsbad, CA) or Talon resin (Clontech, Palo Alto, CA). Various conditions were evaluated for the kinase screening protocol and screening was accomplished with the following method. Polystyrene Maxisorp plates (Nunc) were pre-coated for 1 hour to overnight at room temperature with 5 µg/ml poly(Glu4-Tyr) diluted in Tris-buffered saline (TBS). Plates were washed 3X with TBS. c-Met protein preparation was diluted 1:80 into 0.1% BSA/ 4 mM HEPES. A master mix was prepared consisting of: 1 volume of diluted c-Met, 1 volume of 5X buffer (20 mM HEPES, pH 7.4; 2 mM MnCl2; 100 µM Na3VO4; 1 mM DTT), 0.9 volume of water. Master mix (29 µl) was added to the wells of peptide-coated microtiter plates. For assays where c-Met autophosphorylation was evaluated, plates were uncoated and c-Met was diluted into 4 mM HEPES at 1:40 without BSA. Compounds (1 µl) at various dilutions (1 mM to 0.1 µM) prepared in DMSO were added and mixed well with an automatic piptettor. After incubation 20 minutes at room temperature, the reaction was initiated with 20 µl of 62.5 µM ATP/ 50 mM MgCl2 (final 25 µM ATP/ 20 mM MgCl2 in assay). Reactions were incubated 45 minutes at room temperature. Plates were then washed 3X with 100 µl each of DELFIA wash buffer (Wallac). Antibody binding was performed by adding 75 µl of Europium-conjugated anti-phosphotyrosine diluted 1:2000 in Assay Buffer (Wallac) for 1 hour at room temperature. Plates were washed 3X with DELFIA wash buffer. Detection was done by addition of 100 µl of Enhancement Solution (Wallac). After 30 minutes, plates were read in a Wallac VICTOR-2 time-resolved fluorometer. Inhibition data was reported as europium counts for compound treated wells normalized to control counts. IC50 values were obtained by using log doses of compound and calculated using Data Analysis Toolbox software, version 1.0.2 (MDL Information Systems, Inc.).

T1 sequence (P04049 whole entry): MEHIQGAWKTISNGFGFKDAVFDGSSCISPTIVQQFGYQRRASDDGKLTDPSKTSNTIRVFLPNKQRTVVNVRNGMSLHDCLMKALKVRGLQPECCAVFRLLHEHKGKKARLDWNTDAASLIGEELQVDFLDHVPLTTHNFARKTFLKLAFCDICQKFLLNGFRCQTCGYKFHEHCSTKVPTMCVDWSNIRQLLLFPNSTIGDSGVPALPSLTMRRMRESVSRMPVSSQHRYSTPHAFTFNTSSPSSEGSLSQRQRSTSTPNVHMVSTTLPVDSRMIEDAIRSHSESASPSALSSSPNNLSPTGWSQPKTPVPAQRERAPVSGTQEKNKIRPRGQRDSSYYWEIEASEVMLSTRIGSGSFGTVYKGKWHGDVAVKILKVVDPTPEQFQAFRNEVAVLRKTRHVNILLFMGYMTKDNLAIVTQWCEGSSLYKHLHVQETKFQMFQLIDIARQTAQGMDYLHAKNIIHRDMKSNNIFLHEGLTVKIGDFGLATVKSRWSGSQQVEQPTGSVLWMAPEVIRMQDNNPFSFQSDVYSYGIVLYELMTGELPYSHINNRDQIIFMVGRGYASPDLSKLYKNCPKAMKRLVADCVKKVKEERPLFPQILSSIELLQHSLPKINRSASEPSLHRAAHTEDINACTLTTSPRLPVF

- inhibition at 0.03 µg/mL (Raf-1 (c-Raf); dose 0.03 µg/mL): -5%
- inhibition at 0.1 µg/mL (Raf-1 (c-Raf); dose 0.1 µg/mL): 2%
- inhibition at 0.3 µg/mL (Raf-1 (c-Raf); dose 0.3 µg/mL): 8%
- inhibition at 1 µg/mL (Raf-1 (c-Raf); dose 1.0 µg/mL): 16%
- inhibition at 3 µg/mL (Raf-1 (c-Raf); dose 3.0 µg/mL): 68%
- inhibition at 10 µg/mL (Raf-1 (c-Raf); dose 10.0 µg/mL): 90%
- inhibition at 10 µg/mL (c-Met): 80%
Structure (SMILES): N#Cc1cnc2cc3c(cc2c1Nc1ccc(F)c(Cl)c1)NCCO3 [Example 7, 9-(3-Chloro-4-fluoroanilino)-2,3-dihydro-1H-[1,4]oxazino[3,2-g]quinoline-8-carbonitrile]
